In one series the test system is Staphylococcus. As to the kind of experiment: Binding affinity to Staphylococcus aureus PBP2a measured after 6 hrs by ELISA. Conditions: filed as positive allosteric modulator. (In general: An ELISA detects its analyte on a solid surface through an enzyme-linked reagent.)
The test system of series [1] is Pseudomonas aeruginosa. As to the kind of experiment: Antibacterial activity against Pseudomonas aeruginosa assessed as bacterial growth inhibition measured after 24 hrs by two fold serial dilution technique. Format: functional.
Series [2] deals with Escherichia coli. Nature of the series: Antibacterial activity against Escherichia coli assessed as bacterial growth inhibition measured after 24 hrs by two fold serial dilution technique. Format: functional.
The subject of series [3] is Staphylococcus aureus. Nature of the series: Antibacterial activity against methicillin resistant Staphylococcus aureus treated over 10 serial passages measured after 24 hrs by resistance development assay. Format: functional, organism-based.
Series [4] deals with Staphylococcus aureus. Nature of the series: Antibacterial activity against Staphylococcus aureus ATCC 29213 assessed as bacterial growth inhibition measured after 24 hrs by two fold serial dilution technique. Format: functional.
Another series deals with Klebsiella pneumoniae. As to the kind of experiment: Antibacterial activity against Klebsiella pneumoniae assessed as bacterial growth inhibition measured after 24 hrs by two fold serial dilution technique. Format: functional.
In a further series the test system is Enterococcus faecium. Nature of the series: Antibacterial activity against Enterococcus faecium assessed as bacterial growth inhibition measured after 24 hrs by two fold serial dilution technique. Format: functional.
In series [5] the test system is Escherichia coli. As to the kind of experiment: Antibacterial activity against Escherichia coli ATCC 25922 assessed as bacterial growth inhibition measured after 24 hrs by two fold serial dilution technique. Format: functional.
For series [6], the system named is Staphylococcus aureus. As to the kind of experiment: Antibacterial activity against Staphylococcus aureus ATCC 25923 assessed as bacterial growth inhibition measured after 24 hrs by two fold serial dilution technique. Format: functional.
The test system of series [7] is Pseudomonas aeruginosa. As to the kind of experiment: Antibacterial activity against Pseudomonas aeruginosa ATCC 27853 assessed as bacterial growth inhibition measured after 24 hrs by two fold serial dilution technique. Format: functional.
Series [8] deals with Staphylococcus aureus. Nature of the series: Antibacterial activity against Staphylococcus aureus assessed as bacterial growth inhibition measured after 24 hrs by two fold serial dilution technique. Format: functional.
Series [9] relates to Staphylococcus aureus. As to the kind of experiment: Antibacterial activity against methicillin-resistant Staphylococcus aureus assessed as bacterial growth inhibition measured after 24 hrs by two fold serial dilution technique. Format: functional.
A further series relates to Acinetobacter baumannii. Nature of the series: Antibacterial activity against Acinetobacter baumannii assessed as bacterial growth inhibition measured after 24 hrs by two fold serial dilution technique. Format: functional.
A short description of series [10]: Hemolytic activity in human RBC assessed as hemolysis incubated for 1 hr. Format: toxicity, cell-based, Erythrocyte. To be noted: red blood cells.

The values below come from ChEMBL document CHEMBL5042496, “An unanticipated discovery towards novel naphthalimide corbelled aminothiazoximes as potential anti-MRSA agents and allosteric modulators for PBP2a” (Eur J Med Chem, 2022).

Each structure is given as a SMILES string. Values after ≈ are worked out from the molar mass of the structure shown. Active and inactive are the calls of the source. The rule behind the calls is not given here.

As a reminder, the MIC is the lowest concentration that inhibits growth of the organism. As usually defined, the HC50 is the concentration that lyses half of the red blood cells.

For the compound `CO/N=C(\C(=O)N[C@@H]1C(=O)N2C(C(=O)O)=CCS[C@H]12)c1csc(N)n1`, in the series with Staphylococcus, the Activity is 7.45 µg/mL.

As for `CCn1cc(C(=O)O)c(=O)c2cc(F)c(N3CCNCC3)cc21` [NORFLOXACIN], the minimum inhibitory concentration (MIC) in the series with Pseudomonas aeruginosa [1] was 4 µg/mL (≈ 12.5 µM); in the series with Escherichia coli [2], 2 µg/mL (≈ 6.26 µM); with Staphylococcus aureus [4], 16 µg/mL (≈ 50.1 µM); in the series with Klebsiella pneumoniae, 4 µg/mL (≈ 12.5 µM); with Enterococcus faecium, 8 µg/mL (≈ 25.1 µM); in the series on Escherichia coli [5], 4 µg/mL (≈ 12.5 µM). In addition, the MIC with Staphylococcus aureus [6] is 16 µg/mL (≈ 50.1 µM); in the series with Pseudomonas aeruginosa [7] it was 2 µg/mL (≈ 6.26 µM); with Staphylococcus aureus [8] it was 8 µg/mL (≈ 25.1 µM); in the series on Staphylococcus aureus [9], 16 µg/mL (≈ 50.1 µM); with Acinetobacter baumannii, 1 µg/mL (≈ 3.13 µM). Also, the result with Staphylococcus aureus [3] was inactive. This compound also registered an Activity in the series with Staphylococcus of 7.67 µg/mL.

With `CO/N=C(\C(=O)N1CCN(c2ccc3c4c(cccc24)C(=O)N(c2nccs2)C3=O)CC1)c1csc(N)n1`, the MIC in the series on Pseudomonas aeruginosa [1] was determined as 64 µg/mL (≈ 117 µM); with Escherichia coli [2], 16 µg/mL (≈ 29.2 µM); in the series on Staphylococcus aureus [4] it was 32 µg/mL (≈ 58.4 µM); in the series with Klebsiella pneumoniae, 64 µg/mL (≈ 117 µM); in the series with Enterococcus faecium it was 16 µg/mL (≈ 29.2 µM); in the series with Escherichia coli [5], 64 µg/mL (≈ 117 µM). In addition, the minimum inhibitory concentration (MIC) came to 16 µg/mL (≈ 29.2 µM) with Staphylococcus aureus [6]; 64 µg/mL (≈ 117 µM) in the series with Pseudomonas aeruginosa [7]; 16 µg/mL (≈ 29.2 µM) in the series with Staphylococcus aureus [8]; 2 µg/mL (≈ 3.65 µM) in the series on Staphylococcus aureus [9]; 16 µg/mL (≈ 29.2 µM) in the series with Acinetobacter baumannii. In series [10], the HC50 at 1 h was determined as 311 µg/mL.

Regarding `CN(C)CCN1C(=O)c2cccc3c(N4CCNCC4)ccc(c23)C1=O`, in the series with Staphylococcus, the Activity amounted to 4.74 µg/mL.

Take `CO/N=C(\C(=O)N1CCN(c2ccc3c4c(cccc24)C(=O)N(c2nnc(C)s2)C3=O)CC1)c1csc(N)n1`: the MIC in the series with Pseudomonas aeruginosa [1] came out at 32 µg/mL (≈ 56.9 µM); in the series with Escherichia coli [2], 4 µg/mL (≈ 7.11 µM); in the series with Staphylococcus aureus [4], 16 µg/mL (≈ 28.4 µM); in the series with Klebsiella pneumoniae, 4 µg/mL (≈ 7.11 µM); in the series with Enterococcus faecium, 16 µg/mL (≈ 28.4 µM); in the series on Escherichia coli [5] it was 32 µg/mL (≈ 56.9 µM). Besides, the MIC in the series with Staphylococcus aureus [6] stood at 64 µg/mL (≈ 114 µM); in the series with Pseudomonas aeruginosa [7], 32 µg/mL (≈ 56.9 µM); in the series with Staphylococcus aureus [8] it was 64 µg/mL (≈ 114 µM); with Staphylococcus aureus [9] it was 1 µg/mL (≈ 1.78 µM); with Acinetobacter baumannii, 32 µg/mL (≈ 56.9 µM). Besides, the HC50 at 1 h in series [10] is 265 µg/mL.

`CCCCCCCCCCCCN1C(=O)c2cccc3c(N4CCN(C(=O)/C(=N\OC)c5csc(N)n5)CC4)ccc(c23)C1=O`: the MIC with Pseudomonas aeruginosa [1] came out at 64 µg/mL (≈ 101 µM); with Escherichia coli [2], 64 µg/mL (≈ 101 µM); in the series with Staphylococcus aureus [4] it was 128 µg/mL (≈ 202 µM); in the series on Klebsiella pneumoniae, 64 µg/mL (≈ 101 µM); in the series with Enterococcus faecium, 32 µg/mL (≈ 50.6 µM); with Escherichia coli [5] it was 128 µg/mL (≈ 202 µM). For the same compound, the MIC in the series on Staphylococcus aureus [6] is 128 µg/mL (≈ 202 µM); in the series with Pseudomonas aeruginosa [7], 64 µg/mL (≈ 101 µM); in the series on Staphylococcus aureus [8] it was 16 µg/mL (≈ 25.3 µM); with Staphylococcus aureus [9], 64 µg/mL (≈ 101 µM); in the series on Acinetobacter baumannii, 16 µg/mL (≈ 25.3 µM). Besides, the HC50 at 1 h in series [10] was 359 µg/mL.

Take `CO/N=C(\C(=O)N1CCN(c2ccc3c4c(cccc24)C(=O)N(c2nc4ccccc4s2)C3=O)CC1)c1csc(N)n1`: the MIC in the series on Pseudomonas aeruginosa [1] is 64 µg/mL (≈ 107 µM); in the series with Escherichia coli [2], 64 µg/mL (≈ 107 µM); with Staphylococcus aureus [4] it was 128 µg/mL (≈ 214 µM); in the series with Klebsiella pneumoniae, 16 µg/mL (≈ 26.8 µM); in the series with Enterococcus faecium, 64 µg/mL (≈ 107 µM); in the series with Escherichia coli [5], 16 µg/mL (≈ 26.8 µM). Further, the MIC was 128 µg/mL (≈ 214 µM) in the series on Staphylococcus aureus [6]; 32 µg/mL (≈ 53.5 µM) with Pseudomonas aeruginosa [7]; 128 µg/mL (≈ 214 µM) with Staphylococcus aureus [8]; 16 µg/mL (≈ 26.8 µM) with Staphylococcus aureus [9]; 128 µg/mL (≈ 214 µM) with Acinetobacter baumannii. For the same compound, the HC50 at 1 h in series [10] was 334 µg/mL.

Turning to `CO/N=C(\C(=O)N1CCN(c2ccc3c4c(cccc24)C(=O)N(OC)C3=O)CC1)c1csc(N)n1`, the MIC was 128 µg/mL (≈ 259 µM) with Pseudomonas aeruginosa [1]; 64 µg/mL (≈ 129 µM) with Escherichia coli [2]; 64 µg/mL (≈ 129 µM) in the series on Staphylococcus aureus [4]; 128 µg/mL (≈ 259 µM) in the series with Klebsiella pneumoniae; 2 µg/mL (≈ 4.04 µM) in the series with Enterococcus faecium; 64 µg/mL (≈ 129 µM) in the series with Escherichia coli [5]. Further, the MIC in the series on Staphylococcus aureus [6] came to 64 µg/mL (≈ 129 µM); with Pseudomonas aeruginosa [7], 32 µg/mL (≈ 64.7 µM); with Staphylococcus aureus [8], 128 µg/mL (≈ 259 µM); with Staphylococcus aureus [9], 128 µg/mL (≈ 259 µM); in the series with Acinetobacter baumannii it was 4 µg/mL (≈ 8.09 µM). Moreover, the HC50 at 1 h in series [10] came to 513 µg/mL. In addition, in the series with Staphylococcus, the Activity was 5.43 µg/mL.

In turn, `CN(C)CCN1C(=O)c2cccc3c(Br)ccc(c23)C1=O` yielded an Activity with Staphylococcus of 7.08 µg/mL.
